{
  "source": "patent US10780061B2",
  "about": "“Composition comprising farnesol and use thereof” (Daegu Gyongbuk Institute of Science and Technology, priority 2014, dated 2020)",
  "key": {"[1]": {"assay": "Grip strength of old mice", "type": "in vivo", "settings": "old mouse, farnesol diet 4 months, vs negative control old mouse", "experimental": "22-month-old female mice (weighing 30 g) are fed with a control diet and a farnesol diet for 4 months. That is, 22-month-old mice are fed for 4 months, and then 26-month-old mice are analyzed. […] The same mouse is used as a control group, except that it is fed with a diet containing no farnesol. Muscle strength, energy expenditure, glucose tolerance, and fat accumulation of each mouse are evaluated. […] To measure grip strength as an index of mouse muscle strength, a grip strength meter (Bioseb) is used. For measurement of grip strength of mouse, its front paws are allowed to grip the grid, and its tail is then pulled back steadily and horizontally. When the animal releases the grid, the value is used as grip strength. The maximal grip strength values of individual mice are measured 5 times, and mean values are obtained. Grip strength is expressed as a force (g, gram) per weight."}, "PARIS": {"tested_on": "PARIS", "assay": "PARIS protein and transcriptional levels in extensor digitorum longus muscles of old mouse", "type": "in vivo", "settings": "24-month-old mouse, farnesol 5 weeks, vs old mouse without farnesol"}, "human PARIS (WT, C631S) [2]": {"target": "T1, human PARIS (WT, C631S) (Homo sapiens, UniProt Q6NUN9)", "T1 construct": "Human full length PARIS cDNA (IMAGE: 30347892); expressed in transfected cells; host or cells: C2C12 myoblasts, pCMV-Tag2A (Stratagene)", "T1 sequence (Q6NUN9 whole entry C631S)": "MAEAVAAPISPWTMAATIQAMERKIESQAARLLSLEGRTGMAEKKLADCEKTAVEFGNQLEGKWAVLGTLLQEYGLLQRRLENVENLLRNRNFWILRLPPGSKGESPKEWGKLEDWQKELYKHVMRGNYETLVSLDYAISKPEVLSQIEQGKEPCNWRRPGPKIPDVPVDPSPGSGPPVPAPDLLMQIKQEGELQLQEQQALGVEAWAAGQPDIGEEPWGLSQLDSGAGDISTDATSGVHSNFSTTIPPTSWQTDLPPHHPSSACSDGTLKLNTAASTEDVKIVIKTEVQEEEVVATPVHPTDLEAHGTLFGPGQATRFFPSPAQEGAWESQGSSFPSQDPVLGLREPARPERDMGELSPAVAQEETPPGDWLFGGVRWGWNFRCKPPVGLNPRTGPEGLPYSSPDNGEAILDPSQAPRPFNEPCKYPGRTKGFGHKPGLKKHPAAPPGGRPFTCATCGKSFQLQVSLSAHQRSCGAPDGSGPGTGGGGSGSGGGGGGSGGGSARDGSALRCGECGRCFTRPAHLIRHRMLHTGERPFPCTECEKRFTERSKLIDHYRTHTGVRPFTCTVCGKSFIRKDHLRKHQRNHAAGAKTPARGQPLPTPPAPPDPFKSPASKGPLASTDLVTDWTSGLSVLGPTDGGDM", "assay": "Immunoprecipitation of PARIS WT and PARIS C631S mutant in C2C12 myoblasts", "type": "cell-based", "settings": "C2C12 with FLAG-PARIS WT, 0.1 uM farnesol, 24 hours", "experimental": "(§1) To examine whether cysteine residues of CGLS sequence (631-634) of an amino acid sequence (SEQ ID NO: 11) of human PARIS are farnesylation sites, a FLAG-PARIS wild-type (WT) gene or a FLAG-PARIS C631S mutant (hereinafter, referred to as “MT”) gene is introduced into C2C12 myoblasts in the presence of DMSO or 0.1 uM farnesol, and the gene is expressed in C2C12 myoblasts by culturing them in DMEM containing 10% FBS for 24 hours. Immunoprecipitation and promoter activity analysis of a cell lysate are performed. The site of amino acid sequence (SEQ ID NO: 10) of mouse PARIS corresponding to CGLS sequence (631-634) of the amino acid sequence (SEQ ID NO: 11) of human PARIS is residues at positions 638-641. This CGLS sequence is conserved in mammals as well as humans and mice, and thus C of CGLS which is located at the C-terminus is a farnesylation site regardless of the length of the sequence.\n(§2) Human full length PARIS cDNA (IMAGE: 30347892; Open Biosystems) (SEQ ID NO: 9) is cloned into BamH1 and EcoR1 restriction sites of a mammalian gene expression vector, pCMV-Tag2A (Stratagene). The pCMV-Tag2A vector is a plasmid-derived mammalian expression vector for tagging proteins with an N-terminal FLAG epitope. A QuikChange site-directed mutagenesis kit (Stratagene) is used to prepare pCMV-PARIS C631S, in which a PARIS C631S gene mutant obtained by substituting serine for the cysteine residue at position 631 of human PARIS is cloned into BamHI and EcoRI restriction sites of pCMV-Tag2A (Stratagene). After preparation of the mutant gene, the gene is introduced into pCMV to prepare an overexpression vector. To prepare the PARIS C631S gene, a pair of primers (SEQ ID NOS: 12 and 13) is used. Thereafter, a nucleotide sequence of the PARIS C631S gene thus prepared is confirmed by automated DNA sequencing.\n(§3) In the case of PARIS C631S mutant, no farnesylation occurs. […] In FIG. 5C, − represents C2C12 myoblasts introduced with no PARIS gene, and WT and MT represent C2C12 myoblasts introduced with the wild-type PARIS gene and the mutant PARIS gene, that is, PARIS C631S gene, respectively. […]"}, "human PARIS (WT, C631S) [3]": {"target": "T2, human PARIS (WT, C631S) (Homo sapiens, UniProt Q6NUN9, C631S)", "T2 construct": "Human full length PARIS cDNA (IMAGE: 30347892); expressed in transfected cells; host or cells: C2C12 myoblasts, pCMV-Tag2A (Stratagene)", "T2 sequence (Q6NUN9 whole entry C631S)": "as above", "assay": "Immunoprecipitation of PARIS WT and PARIS C631S mutant in C2C12 myoblasts", "type": "cell-based", "settings": "C2C12 with FLAG-PARIS C631S, 0.1 uM farnesol, 24 hours", "experimental": "as §1, §2, §3"}, "[4]": {"tested_on": "AAV-PARIS WT or C631S-introduced tibialis anterior muscles", "assay": "SDH staining of muscles introduced with AAV-PARIS WT or AAV-PARIS C631S", "type": "in vivo, mouse", "settings": "5-month-old mice, farnesol diet 1 week, 4 days after virus", "experimental": "5-month-old C57BL/6 male mice (body weight of 22 g) are fed with a control diet or a farnesol-containing diet for 1 week, and then AAV-GFP, AAV-PARIS WT or AAV-PARIS C631S virus is injected into tibialis anterior muscles. Feeding conditions, not mentioned, are the same as in Section 2 of Example 2. After 4 days, the muscles are collected and histological staining is performed to analyze mitochondrial enzyme activity. The staining is performed by SDH enzyme activity staining. Viral transduction efficiency is evaluated by GFP fluorescence."}, "PARIS, PGC-1α": {"tested_on": "PARIS, PGC-1α", "assay": "Immunoprecipitation for PGC-1α expression and PARIS-farnesylation, short-term high fat diet", "type": "in vivo, mouse", "settings": "high fat diet with 0.5% compound, 5 days, gastrocnemius muscles", "source_text": "To prepare the PGC-1α-inhibited model, 3-month-old mouse (female, body weight of 20 g) is fed with high fat diet, in which fat is increased to 60%, compared to a negative control group, for 5 days (short-term effect) or 3 months (long-term effect). The negative control group is fed with a general diet. Farnesol is mixed in the high fat diet at a content of 0.5% (weight of farnesol/weight of diet). A positive control group is fed with high fat diet containing a type II diabetes drug, metformin at a content of 0.5% (weight of metformin/weight of diet). Mice are fed with the general diet, the high fat diet, and the high fat diet containing farnesol or metformin for 3 months, and then hind limbs are removed to analyze muscle differentiation and mitochondrial enzyme activity.\nThe effects of high fat diet and farnesol and metformin on PGC-1α induction by PARIS-farnesylation are evaluated. To analyze effect of short-term high fat diet, mice are fed with the above conditions for 5 days. Immunoblotting of PGC-1α and PARIS in gastrocnemius muscles of the mice is performed.\nIn this regard, PARIS-farnesylation is normalized to the immunoprecipitated PARIS expression level."}},
  "data": [
    {"smiles": "CC(C)=CCC/C(C)=C/CC/C(C)=C/CO", "note": "[farnesol, (2E,6E)-3,7,11-trimethyldodeca-2,6,10-trien-1-ol]", "values": [
      {"measurement": "grip strength", "setting": "[1]", "result": "significantly increased"},
      {"measurement": "protein expression level of PARIS in EDL", "setting": "PARIS", "result": "remarkably decreased"},
      {"measurement": "transcriptional level of PARIS in EDL", "setting": "PARIS", "result": "remarkably decreased"},
      {"measurement": "PGC-1α level, PARIS WT", "setting": "human PARIS (WT, C631S) [2]", "result": "PGC-1α increase"},
      {"measurement": "farnesylation of PARIS WT", "setting": "human PARIS (WT, C631S) [2]", "result": "increased"},
      {"measurement": "PGC-1α level, PARIS C631S mutant", "setting": "human PARIS (WT, C631S) [3]", "result": "does not affect"},
      {"measurement": "reduction in mitochondrial enzyme activity (SDH), AAV-PARIS WT-introduced muscles", "setting": "[4]", "result": "inhibits a reduction"},
      {"measurement": "reduction in PARIS-farnesylation by high fat diet", "setting": "PARIS, PGC-1α", "result": "inhibited"},
      {"measurement": "reduction in PGC-1α expression by high fat diet", "setting": "PARIS, PGC-1α", "result": "inhibited"}
    ]}
  ]
}
